Laboratory results taken from the NIST ThermoML archive (doi:10.1016/j.jct.2015.06.024).

Assay: mn = molality of the nth substance listed, in mol/kg
Conditions: 84.5 kPa, Liquid; for speed of sound: Frequency=3 MHz, Sing-around technique in a fixed-path interferometer; for mass density: Vibrating tube method

O=C(O)[C@@H]1CCCN1 [L-proline] + O
Conditions | mass density, 288.15 K [kg/m3] | mass density, 293.15 K [kg/m3] | mass density, 298.15 K [kg/m3] | mass density, 303.15 K [kg/m3] | mass density, 308.15 K [kg/m3] | speed of sound, 288.15 K [m/s] | speed of sound, 293.15 K [m/s] | speed of sound, 298.15 K [m/s] | speed of sound, 303.15 K [m/s] | speed of sound, 308.15 K [m/s]
m1 = 0.04355 | 1000.55 | 999.631 | 998.453 | 997.041 | 995.413 | 1470.3 | 1486.1 | 1500.1 | 1512.3 | 1522.8
m1 = 0.05237 | 1000.84 | 999.916 | 998.737 | 997.322 | 995.693 | 1471 | 1486.8 | 1500.8 | 1512.9 | 1523.4
m1 = 0.06122 | 1001.13 | 1000.21 | 999.025 | 997.607 | 995.975 | 1471.7 | 1487.6 | 1501.5 | 1513.6 | 1524
m1 = 0.06959 | 1001.41 | 1000.48 | 999.295 | 997.877 | 996.241 | 1472.5 | 1488.2 | 1502.1 | 1514.2 | 1524.6
m1 = 0.07882 | 1001.71 | 1000.78 | 999.588 | 998.167 | 996.529 | 1473.2 | 1488.9 | 1502.8 | 1514.8 | 1525.2
m1 = 0.08768 | 1002 | 1001.07 | 999.877 | 998.452 | 996.813 | 1474 | 1489.6 | 1503.5 | 1515.4 | 1525.8
m1 = 0.09661 | 1002.3 | 1001.36 | 1000.16 | 998.734 | 997.093 | 1474.7 | 1490.3 | 1504.1 | 1516.1 | 1526.4
m1 = 0.1056 | 1002.59 | 1001.65 | 1000.45 | 999.02 | 997.377 | 1475.4 | 1491 | 1504.7 | 1516.7 | 1526.9
m1 = 0.1234 | 1003.17 | 1002.23 | 1001.02 | 999.585 | 997.937 | 1476.8 | 1492.3 | 1506 | 1517.9 | 1528.1
m1 = 0.1414 | 1003.76 | 1002.8 | 1001.59 | 1000.15 | 998.498 | 1478.3 | 1493.7 | 1507.3 | 1519.1 | 1529.3
m1 = 0.1591 | 1004.34 | 1003.37 | 1002.15 | 1000.71 | 999.051 | 1479.8 | 1495.2 | 1508.7 | 1520.5 | 1530.6
m1 = 0.1775 | 1004.93 | 1003.96 | 1002.74 | 1001.28 | 999.622 | 1481.3 | 1496.6 | 1510.1 | 1521.8 | 1531.8
m1 = 0.1955 | 1005.51 | 1004.53 | 1003.3 | 1001.85 | 1000.18 | 1482.8 | 1498 | 1511.4 | 1523 | 1533
m1 = 0.2134 | 1006.09 | 1005.1 | 1003.87 | 1002.4 | 1000.73 | 1484.2 | 1499.4 | 1512.6 | 1524.2 | 1534.1

CCCCO [butan-1-ol] + O
Conditions | mass density, 288.15 K [kg/m3] | mass density, 293.15 K [kg/m3] | mass density, 298.15 K [kg/m3] | mass density, 303.15 K [kg/m3] | mass density, 308.15 K [kg/m3] | speed of sound, 288.15 K [m/s] | speed of sound, 293.15 K [m/s] | speed of sound, 298.15 K [m/s] | speed of sound, 303.15 K [m/s] | speed of sound, 308.15 K [m/s]
m1 = 0.01342 | 998.939 | 998.039 | 996.876 | 995.476 | 993.859 | 1467.6 | 1483.6 | 1497.7 | 1510 | 1520.6
m1 = 0.02701 | 998.774 | 997.873 | 996.708 | 995.306 | 993.686 | 1468.7 | 1484.7 | 1498.7 | 1510.9 | 1521.3
m1 = 0.04053 | 998.614 | 997.712 | 996.547 | 995.143 | 993.508 | 1469.9 | 1485.7 | 1499.6 | 1511.7 | 1522.2
m1 = 0.05431 | 998.455 | 997.552 | 996.384 | 994.976 | 993.352 | 1471 | 1486.7 | 1500.5 | 1512.5 | 1522.9
m1 = 0.06771 | 998.296 | 997.389 | 996.218 | 994.809 | 993.182 | 1472.1 | 1487.7 | 1501.4 | 1513.3 | 1523.6
m1 = 0.08132 | 998.137 | 997.231 | 996.058 | 994.647 | 992.992 | 1473.1 | 1488.6 | 1502.3 | 1514.1 | 1524.4
m1 = 0.1063 | 997.846 | 996.934 | 995.757 | 994.341 | 992.707 | 1475.1 | 1490.5 | 1504 | 1515.7 | 1525.7
m1 = 0.1358 | 997.518 | 996.602 | 995.417 | 993.998 | 992.357 | 1477.4 | 1492.5 | 1505.8 | 1517.4 | 1527.2
